Results published in PubChem BioAssay (NCI).
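Protocol summary: plate cells (96-well), add compound at 5 concentrations, incubate 48 h, interpolate endpoints linearly. TGI: concentration producing complete growth inhibition.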

How the values were obtained:
Experiment in all cases: NCI anticancer screen, dose series, 48 h
SNB-19 CNS = system: SNB-19 CNS
NCI/ADR-RES ovarian = system: NCI/ADR-RES ovarian
BT-549 breast = system: BT-549 breast
OVCAR-5 ovarian = system: OVCAR-5 ovarian
HS 578T breast = system: HS 578T breast
NCI-H23 lung = system: NCI-H23 lung
SN12C renal = system: SN12C renal
HCT-116 colon = system: HCT-116 colon
786-0 renal = system: 786-0 renal
MCF7 breast = system: MCF7 breast
T-47D breast = system: T-47D breast
SF-295 CNS = system: SF-295 CNS
UO-31 renal = system: UO-31 renal
EKVX NSCLC = system: EKVX NSCLC
SF-268 CNS = system: SF-268 CNS
HT29 colon = system: HT29 colon
OVCAR-4 ovarian = system: OVCAR-4 ovarian
M14 melanoma = system: M14 melanoma
RXF 393 renal = system: RXF 393 renal
MALME-3M melanoma = system: MALME-3M melanoma
A498 renal = system: A498 renal
A549 NSCLC = system: A549 NSCLC
SNB-75 CNS = system: SNB-75 CNS
OVCAR-8 ovarian = system: OVCAR-8 ovarian
MOLT-4 leukemia = system: MOLT-4 leukemia
SK-OV-3 ovarian = system: SK-OV-3 ovarian
NCI-H522 lung = system: NCI-H522 lung
MDA-MB-231 breast = system: MDA-MB-231 breast
TK-10 renal = system: TK-10 renal
LOX IMVI melanoma = system: LOX IMVI melanoma
UACC-62 melanoma = system: UACC-62 melanoma
MDA-N = system: MDA-N
UACC-257 melanoma = system: UACC-257 melanoma
U251 CNS = system: U251 CNS
HOP-62 NSCLC = system: HOP-62 NSCLC
SK-MEL-2 melanoma = system: SK-MEL-2 melanoma
IGROV1 ovarian = system: IGROV1 ovarian
OVCAR-3 ovarian = system: OVCAR-3 ovarian
HCC-2998 colon = system: HCC-2998 colon
HCT-15 colon = system: HCT-15 colon
KM12 colon = system: KM12 colon
DU-145 prostate = system: DU-145 prostate
HL-60(TB) leukemia = system: HL-60(TB) leukemia
SK-MEL-28 melanoma = system: SK-MEL-28 melanoma
SK-MEL-5 melanoma = system: SK-MEL-5 melanoma
MDA-MB-435 = system: MDA-MB-435
PC-3 prostate = system: PC-3 prostate
CAKI-1 renal = system: CAKI-1 renal
SW-620 colon = system: SW-620 colon
RPMI-8226 leukemia = system: RPMI-8226 leukemia
NCI-H226 lung = system: NCI-H226 lung
COLO 205 colon = system: COLO 205 colon
ACHN renal = system: ACHN renal
NCI-H460 lung = system: NCI-H460 lung
SF-539 CNS = system: SF-539 CNS
CCRF-CEM leukemia = system: CCRF-CEM leukemia
HOP-92 NSCLC = system: HOP-92 NSCLC
K-562 leukemia = system: K-562 leukemia

Measured: TGI

Cc1cc(Nc2ccc(S(=O)(=O)O)c3cc(S(=O)(=O)O)cc(S(=O)(=O)O)c23)c2ccccc2n1
> 100 µM: SNB-19 CNS | NCI/ADR-RES ovarian | BT-549 breast | OVCAR-5 ovarian | HS 578T breast | NCI-H23 lung | SN12C renal | HCT-116 colon | 786-0 renal | MCF7 breast | T-47D breast | SF-295 CNS | UO-31 renal | EKVX NSCLC | SF-268 CNS | HT29 colon | OVCAR-4 ovarian | M14 melanoma | RXF 393 renal | MALME-3M melanoma | A498 renal | A549 NSCLC | SNB-75 CNS | OVCAR-8 ovarian | MOLT-4 leukemia | SK-OV-3 ovarian | NCI-H522 lung | MDA-MB-231 breast | TK-10 renal | LOX IMVI melanoma | UACC-62 melanoma | MDA-N | UACC-257 melanoma | U251 CNS | HOP-62 NSCLC | SK-MEL-2 melanoma | IGROV1 ovarian | OVCAR-3 ovarian | HCC-2998 colon | HCT-15 colon | KM12 colon | DU-145 prostate | HL-60(TB) leukemia | SK-MEL-28 melanoma | SK-MEL-5 melanoma | MDA-MB-435 | PC-3 prostate | CAKI-1 renal | SW-620 colon | RPMI-8226 leukemia | NCI-H226 lung | COLO 205 colon | ACHN renal | NCI-H460 lung | SF-539 CNS

CC(=O)N(C(=O)CC(=O)N1N=C(c2ccccc2)C(N=Nc2ccccc2[N+](=O)[O-])C1=O)c1ccc(Cl)cc1 (configuration not stated)
> 10 µM: SNB-19 CNS | NCI/ADR-RES ovarian | BT-549 breast | OVCAR-5 ovarian | HS 578T breast | CCRF-CEM leukemia | NCI-H23 lung | SN12C renal | HCT-116 colon | 786-0 renal | HOP-92 NSCLC | MCF7 breast | T-47D breast | SF-295 CNS | UO-31 renal | EKVX NSCLC | SF-268 CNS | HT29 colon | OVCAR-4 ovarian | RXF 393 renal | MALME-3M melanoma | A498 renal | A549 NSCLC | SNB-75 CNS | OVCAR-8 ovarian | MOLT-4 leukemia | SK-OV-3 ovarian | NCI-H522 lung | MDA-MB-231 breast | TK-10 renal | LOX IMVI melanoma | UACC-62 melanoma | MDA-N | UACC-257 melanoma | U251 CNS | HOP-62 NSCLC | SK-MEL-2 melanoma | IGROV1 ovarian | OVCAR-3 ovarian | HCC-2998 colon | HCT-15 colon | KM12 colon | DU-145 prostate | HL-60(TB) leukemia | SK-MEL-28 melanoma | SK-MEL-5 melanoma | MDA-MB-435 | PC-3 prostate | K-562 leukemia | CAKI-1 renal | SW-620 colon | RPMI-8226 leukemia | NCI-H226 lung | COLO 205 colon | ACHN renal | NCI-H460 lung | SF-539 CNS
